# Reference: patent publication US20260116910A1, “POLYCYCLIC COMPOUNDS AND METHODS THEREOF” (HEPAITECH (BEIJING) BIOPHARMA TECHNOLOGY CO., LTD., priority 2021, published 2026)
# Where two headings read alike, the source gives them in different places.
# Tests used:
# human FXR (NR1H4) = target: T1, human FXR (NR1H4) (Homo sapiens, UniProt Q96RI1); assay: Human FXR (NR1H4) agonist assessment, FXRE-NanoLuc reporter in HEK293T cells; format: cell-based; settings: for EC50: read-out: EC50
# T1 sequence (Q96RI1 1-476 isoform Q96RI1-1): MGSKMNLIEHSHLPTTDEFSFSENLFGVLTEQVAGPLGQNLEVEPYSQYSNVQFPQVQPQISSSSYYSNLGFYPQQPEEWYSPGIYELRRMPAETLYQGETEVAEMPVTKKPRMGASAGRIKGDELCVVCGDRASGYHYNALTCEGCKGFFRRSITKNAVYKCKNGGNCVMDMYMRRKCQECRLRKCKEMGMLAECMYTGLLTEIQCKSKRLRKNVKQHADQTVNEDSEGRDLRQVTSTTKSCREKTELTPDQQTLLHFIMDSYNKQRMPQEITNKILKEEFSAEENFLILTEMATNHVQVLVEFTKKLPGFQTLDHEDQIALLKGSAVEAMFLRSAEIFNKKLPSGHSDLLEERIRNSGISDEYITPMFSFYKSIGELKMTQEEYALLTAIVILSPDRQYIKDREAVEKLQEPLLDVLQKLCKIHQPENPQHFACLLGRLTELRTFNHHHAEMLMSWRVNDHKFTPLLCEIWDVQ
# Method: As those skilled in the art appreciate, various technologies are available for assessment of FXR activation in accordance with the present disclosure. […] Human FXR (NR1H4) agonist assessment (see, e.g., Yu et al. eLife 2019; 8: e48431): HEK293T cells stably expressing human FXR and containing FXR response element (FXRE)-NanoLuc reporter were cultured in DMEM medium supplemented with 10% FBS and 1% PS, at 37° C. in a humidified atmosphere with 5% CO2. Cells were detached by centrifuging (1000 rpm, 3 min). The pellet was re-suspended in medium, and cell density was adjusted to about 1×10^6 cells/mL. 100 μL suspension was seeded to each well of a white-walled, clear-bottom 96-well microplates (cell plate). Cells in microplates were cultured overnight.
# In the following day, cells were grown to higher than 95% density in each well. Culture medium was replaced, and compounds were added to the wells. 0.01% DMSO (v/v) served as negative control. Plates were incubated at 37° C. in 5% CO2 for 24 hr.
# In the following day, a 10 μL aliquot of cell culture medium was removed from each well and combined with 40 μL culture medium plus […] assay buffer (containing 20 mM of the luciferase substrate coelenterazine). After 5 min incubation, luminescence was measured using an EnVision plate reader (PerkinElmer).
# In some embodiments, gradient diluted solutions of several concentrations were used to treat cells and corresponding responses were used to fit sigmoid function and to derive EC50 in Origin.
# MRGPRX4 = MRGPRX4 (Homo sapiens, UniProt Q96LA9); assay: MRGPRX4 activation, Fluo-8 Ca2+ FLIPR assay in HEK293T cells stably expressing MRGPRX4; format: cell-based; settings: for EC50: MRGPRX4 activation, Ca2+ fluorescence
# Method: In some embodiments, cells were cultured in poly-D-Lys coated blacked walled, clear-bottom 96-well microplates. HEK293T cells stably expressing MRGPRX4 were cultured in DMEM medium supplemented with 10% FBS and 1% PS, at 37° C. in a humidified atmosphere with 5% CO2. Cells were detached by centrifuging (1000 rpm, 3 min). The pellet was re-suspended in medium, and cell density was adjusted to about 1×10^6 cells/mL. 100 μL suspension was seeded to each well of a microplates (cell plate). Cells in the microplates were cultured overnight. In the following day, cells were grown to higher than 95% density in each well.
# Ca^2+ fluorescent dye loading: Fluo-8 AM (Screen Quest Fluo-8 AM Calcium Assay Kit, AAT Bioquest, cat. #: 21083) was diluted in HHBS buffer and adjusted to 2 μM (dye buffer). Medium in each well was changed into 50 μL dye buffer carefully. After incubation for 40-60 min under room temperature, the dye buffer was changed into 50 μL HHBS buffer.
# The concentration of solution should be determined according to the protocol settings and experimental needs (e.g., Log[M]=−4, −5, −6, −7, −8, and −9). Prepare 2× serial dilution series of compounds (at least 75 μL per well).
# A fluorescent signal baseline was measured using FLIPR®Tetra for 30 s. Then 50 μL of the chemical solution would be added to the cell plate. The fluorescent signal would be measured for another 150 s.
# Activity of each compound was calculated by the fluorescence change (dF/F0). Curves were fitted to obtain EC50 values. In some embodiments, at least 3 repeats were performed to obtain the average values. For assessment of a compound, gradient diluted solutions of different concentrations were used to treat cells and corresponding responses were used to fit sigmoid function and to derive EC50 in Origin. In some embodiments, assessed concentrations were or included about 10^−4, 10^−4.5, 10^−5, 10^−5.5, 10^−6, 10^−6.5, 10^−7, 10^−8, and/or 10^−9 M; for example, in many instances, assessed concentrations included about 10^−5, 10^−6, 10^−7 and 10^−8 M. In some embodiments, assessed concentrations were about 10^−4, 10^−4.5, 10^−5, 10^−5.5, 10^−6, 10^−7, 10^−8, and 10^−9 M. In some embodiments, assessed concentrations were about 10^−4, 10^−5, 10^−6, 10^−7, 10^−8, and 10^−9 M. In some embodiments, assessed concentrations were about 10^−4, 10^−4.5, 10^−5, 10^−5.5, 10^−6, and 10^−7 M. In some embodiments, assessed concentrations were about 2000000, 1000000, 500000, 250000, 125000, 62500, 31250, 15625, 7813, 3906 nM. […] In some embodiments, assessed concentrations were about 30000, 10000, 3333, 1111, 370, 123, 41, 14, 4.6, 1.5 nM.
# [1] = FXR activation, HEK293T FXRE-NanoLuc reporter, 24 hr
# Chain of MRGPRX4 (Q96LA9 whole entry): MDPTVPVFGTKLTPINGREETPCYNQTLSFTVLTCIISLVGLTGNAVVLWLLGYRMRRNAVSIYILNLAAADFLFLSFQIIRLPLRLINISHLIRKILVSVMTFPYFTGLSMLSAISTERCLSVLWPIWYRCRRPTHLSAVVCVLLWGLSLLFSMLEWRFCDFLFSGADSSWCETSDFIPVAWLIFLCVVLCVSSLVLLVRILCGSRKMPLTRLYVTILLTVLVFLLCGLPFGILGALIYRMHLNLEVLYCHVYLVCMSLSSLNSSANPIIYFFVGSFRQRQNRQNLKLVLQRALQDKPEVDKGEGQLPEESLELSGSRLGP
compound,measurement,setting,value
C[C@H](CCC(=O)O)[C@H]1CC[C@H]2[C@@H]3CC[C@@H]4C[C@H](O)CC[C@]4(C)[C@H]3C[C@@H](O)[C@]12C [RC-4],"Efficacy (maximum measured induction of NanoLuc, normalized to CDCA set as 100%)",human FXR (NR1H4); [1],A (efficacy >400%)
same,EC50,human FXR (NR1H4); [1],< 1 µM
CC[C@H]1[C@@H](O)[C@@H]2[C@H](CC[C@]3(C)[C@@H]([C@H](C)CCNC(=O)C(=O)O)CC[C@@H]23)[C@@]2(C)CCCC[C@@H]12 [8-1],"Efficacy (maximum measured induction of NanoLuc, normalized to CDCA set as 100%)",human FXR (NR1H4); [1],B (300%<efficacy <=400%)
same,EC50,human FXR (NR1H4); [1],1 to 10 µM
CC[C@H]1[C@@H](O)[C@@H]2[C@H](CC[C@]3(C)[C@@H]([C@H](C)CCNC(=S)NS(=O)(=O)c4cccs4)CC[C@@H]23)[C@@]2(C)CCCC[C@@H]12 [7-3],"Efficacy (maximum measured induction of NanoLuc, normalized to CDCA set as 100%)",human FXR (NR1H4),C (key: A: efficacy >400%; B: 300%<efficacy <=400%; C: 100%<efficacy <=300%; D: efficacy <=100%)
same,EC50,human FXR (NR1H4); [1],< 1 µM
C[C@H](CCCCNC(=O)NS(=O)(=O)c1ccc(C(C)(C)CF)cc1)[C@H]1CC[C@H]2[C@@H]3CC[C@@H]4CCCC[C@]4(C)[C@H]3CC[C@]12C [24-1],"Efficacy (maximum measured induction of NanoLuc, normalized to CDCA set as 100%)",human FXR (NR1H4); [1],B (300%<efficacy <=400%)
same,EC50,human FXR (NR1H4); [1],1 to 10 µM
"CC[C@H]1[C@@H](O)[C@@H]2[C@H](CC[C@]3(C)[C@@H]([C@H](C)CCC(=O)O)CC[C@@H]23)[C@@]2(C)CC[C@@H](O)C[C@@H]12 [OCA, obeticholic acid, reference compound]",Activation (%),"MRGPRX4; E3-8-1, 3906 nM, n = 1",3.48%
same,Activation (%),"MRGPRX4; E3-8-1, 3906 nM, n = 2",4.41%
same,Activation (%),"MRGPRX4; E3-8-1, 7813 nM, n = 1",3.48%
same,Activation (%),"MRGPRX4; E3-8-1, 7813 nM, n = 2",4.10%
same,Activation (%),"MRGPRX4; E3-8-1, 15625 nM, n = 1",6.58%
same,Activation (%),"MRGPRX4; E3-8-1, 15625 nM, n = 2",9.06%
same,Activation (%),"MRGPRX4; E3-8-1, 31250 nM, n = 1",13.7%
same,Activation (%),"MRGPRX4; E3-8-1, 31250 nM, n = 2",25.8%
same,Activation (%),"MRGPRX4; E3-8-1, 62500 nM, n = 1",65.7%
same,Activation (%),"MRGPRX4; E3-8-1, 62500 nM, n = 2",49.9%
same,Activation (%),"MRGPRX4; E3-8-1, 125000 nM, n = 1",100.4%
same,Activation (%),"MRGPRX4; E3-8-1, 125000 nM, n = 2",85.8%
same,Activation (%),"MRGPRX4; E3-8-1, 250000 nM, n = 1",104.4%
same,Activation (%),"MRGPRX4; E3-8-1, 250000 nM, n = 2",100.4%
same,Activation (%),"MRGPRX4; E3-8-1, 500000 nM, n = 1",138.8%
same,Activation (%),"MRGPRX4; E3-8-1, 500000 nM, n = 2",110.9%
same,Activation (%),"MRGPRX4; E3-8-1, 1000000 nM, n = 1",151.8%
same,Activation (%),"MRGPRX4; E3-8-1, 1000000 nM, n = 2",149.6%
same,Activation (%),"MRGPRX4; E3-8-1, 2000000 nM, n = 1",191.4%
same,Activation (%),"MRGPRX4; E3-8-1, 2000000 nM, n = 2",158.9%
same,EC50,"MRGPRX4; no activation in tested range reported as III, read-out: Activity (EC50 μM)",< 50 µM
same,EC50,"MRGPRX4; read-out: Activity (EC50 μM), value in parentheses",37 µM
